GI50 and TGI data for 15 compounds are collected here from PubChem BioAssay (NCI).

“And” between values parts separate entries of the source, which are not always exact repeats. Identical values can stand only once.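 The compound was tested at five concentrations on cells cultured in 96-well plates, with a 48-hour exposure period. Here, GI50 denotes the concentration required for 50% inhibition of growth. The concentration for full growth arrest is given as TGI.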 Where a SMILES comes first, the peptide text is derived from it. [ ]: non-standard residue; d: D form. pGlu = O=C1CC[CH](C(=O)O)N1 Where only a bound is given, the exact number is not on record here.

Common to all, as to assay: NCI-60 cell line screen, 48 h
Assay [1] relates to RXF 393 renal.
Assay [2] relates to MDA-MB-231 breast.
The subject of assay [3] is 786-0 renal.
Assay [4] has as its system SF-539 CNS.
Assay [5] concerns SR leukemia.
The subject of assay [6] is NCI-H460 lung.
The test system of assay [7] is CCRF-CEM leukemia.
Assay [8] has as its system OVCAR-5 ovarian.
For assay [9], the system named is CAKI-1 renal.
Assay [10] deals with MDA-MB-435.

`CCNC(=O)C1CCCN1C(=O)C(CCCN=C(N)N)NC(=O)C(CC(C)C)NC(=O)C(CC(C)C)NC(=O)C(Cc1ccc(O)cc1)NC(=O)C(CO)NC(=O)C(Cc1c[nH]c2ccccc12)NC(=O)C(Cc1cnc[nH]1)NC(=O)C1CCC(=O)N1` (stereo not given) ([pGlu]HWSYLLRP-NHEt; configuration not given here): the GI50 in assay [1], in assay [2], in [3], in [4], in [5] and in assay [6] was greater than 100 µM in each case. Besides, the GI50 in assay [7] was 81.7 µM; in [8], greater than 100 µM; in assay [9], greater than 100 µM; in assay [10] it was greater than 100 µM. In addition, the TGI in [1], in assay [2], in assay [3], in assay [4], in assay [5] and in assay [6] was greater than 100 µM each time. For the same compound, the TGI in assay [7], in [8], in assay [9] and in assay [10] was greater than 100 µM throughout.

Turning to `COc1ccc(/C=C/C(=O)c2cc(OC)c(OC)c(OC)c2)cc1OCc1cn(Cc2ccc(F)cc2)nn1`, the GI50 was 1.9 µM in [1]; 2.84 µM in assay [2]; 4.44 µM in [3]; 2.49 µM in [4]; 0.843 µM in [5]; 3.3 µM in [6]. In addition, the GI50 in [7] is 2.14 µM; in assay [8], 3.22 µM; in assay [9] it was 4.79 µM; in assay [10], 2.78 µM. The TGI in assay [1] was 5.51 µM; in [2], greater than 100 µM; in [3], greater than 100 µM; in assay [4], 7.83 µM; in assay [5] it was greater than 100 µM; in assay [6] it was 15.4 µM. Besides, the TGI in [7] is 8.66 µM; in assay [8] it was greater than 100 µM; in [9] it was greater than 100 µM; in assay [10] it was greater than 100 µM.

For the compound `C[C@@]1(C(=O)O)CCC[C@]2(C)C1CC[C@@]13CC(=O)[C@@](CO)(CC[C@]12O)C3` (stereo not given in full), the GI50 in assay [1], in assay [2], in assay [3], in assay [4], in assay [5] and in [6] was greater than 100 µM in each case. The GI50 in [7], in [8], in assay [9] and in assay [10] was greater than 100 µM each time. The TGI in assay [1], in assay [2], in assay [3], in assay [4], in [5] and in [6] was greater than 100 µM in each case. The TGI in assay [7], in assay [8], in [9] and in [10] was greater than 100 µM in each case.

As to `COc1cccc(N2CCN(CC(=O)N3CCN(c4nnc(-c5ccc(Cl)cc5)c(-c5ccc(Cl)cc5)n4)CC3)CC2)c1`, the GI50 in [1] is 28.7 µM; in assay [2], 34.2 µM; in assay [3], 16.3 µM; in assay [4], 11.5 µM; in assay [5], 5.04 µM; in assay [6], 24.5 µM. The GI50 in [7] is 27.2 µM; in assay [8], greater than 100 µM; in assay [9], 14.8 µM; in [10] it was 9.26 µM. Besides, the TGI in [1] was greater than 100 µM; in assay [2], greater than 100 µM; in assay [3], 62.3 µM; in [4], 90.7 µM; in [5], 31.3 µM; in assay [6] it was greater than 100 µM. In addition, the TGI in [7], in assay [8], in assay [9] and in [10] was greater than 100 µM throughout.

Take `CSC(=Nc1nnc(-c2ccc([N+](=O)[O-])cc2)s1)SC`: the TGI was 45.4 µM in assay [1]; greater than 100 µM in assay [2]; 55.5 µM in assay [3]; 44.5 µM in [4]; greater than 100 µM in assay [5]; greater than 100 µM in assay [6]. Also, the TGI is greater than 100 µM in assay [7], greater than 100 µM in [8], 38.4 µM in assay [9] and greater than 100 µM in [10].

On to `CCOC(=O)Nc1ccc2c(c1)/C(=N\NC(N)=S)c1ccccc1-2`, for which the GI50 in assay [1] is 1.93 µM; in assay [2], 3.48 µM; in assay [3], 3.06 µM; in assay [4], 3.75 µM; in [5], 3.13 µM; in assay [6], 4.33 µM. Moreover, the GI50 in [7] was 3.49 µM; in assay [8], 16.8 µM; in assay [9], 3.22 µM; in assay [10], 3.58 µM. Moreover, the TGI was 4.6 µM in assay [1]; greater than 54.6 µM in assay [2]; 9.08 µM in [3]; 17.3 µM in [4]; 24.3 µM in [5]; 23.1 µM in [6]. Further, the TGI in assay [7] is 31.5 µM; in assay [8], 59.4 µM; in assay [9] it was 15.2 µM; in assay [10], 18.3 µM.

For `Clc1nc(Cl)c2ncn(CC3(Cn4cnc5c(Cl)nc(Cl)nc54)COC3)c2n1`, the GI50 in assay [1] was 0.196 µM; in assay [2], 0.19 µM; in [3], 0.762 µM; in [4] it was 1.24 µM; in assay [5], 0.407 µM; in assay [6], 0.222 µM. Besides, the GI50 in assay [7] was 0.221 µM; in assay [8], 0.634 µM; in [9] it was 0.195 µM; in [10], 0.234 µM. In addition, the TGI is 0.405 µM in assay [1]; 0.371 µM in [2]; 2.37 µM in assay [3]; 2.55 µM in assay [4]; greater than 100 µM in assay [5]; 0.447 µM in [6]. Further, the TGI in assay [7] was determined as 0.471 µM; in [8], 1.2 µM; in assay [9], 0.496 µM; in assay [10], 0.613 µM.

Turning to `O=C1C(Cl)=C(Nc2cccc(Cl)c2)C(=O)N1Cc1ccc(Cl)cc1`, the GI50 was 0.778 µM in assay [1]; 0.216 µM in assay [2]; 0.186 µM in [3]; 0.196 µM in assay [4]; 0.215 µM in assay [5]; 0.538 µM in [6]. Further, the GI50 in assay [7] is 0.318 µM; in assay [8] it was 0.864 µM; in assay [9], 0.919 µM; in assay [10], 0.396 µM. The TGI is 22.6 µM in [1]; 1.22 µM in assay [2]; 5.48 µM in assay [3]; 2.37 µM in assay [4]; 15.7 µM in assay [6]; greater than 19.8 µM in [7]. The TGI is 15.1 µM in assay [8], 13.9 µM in assay [9] and 2.91 µM in [10].

As for `COc1ncnc2c(-c3ccccc3)cn(COCc3ccccc3)c12`, the GI50 in assay [1] is 2.5 µM; in [2], 4.04 µM; in assay [3], 4.55 µM; in [4], 11.8 µM; in assay [5] it was 2.79 µM; in [6], 3.54 µM. The GI50 was 3.58 µM in [7], 47.8 µM in [8], 3.02 µM in assay [9] and 2 µM in [10]. The TGI in [1] was 7.71 µM; in [2] it was greater than 100 µM; in [3], greater than 100 µM; in assay [4], greater than 100 µM; in [5] it was 43.2 µM; in assay [6], 23 µM. The TGI in [7] was greater than 100 µM; in assay [8] it was greater than 100 µM; in assay [9], greater than 100 µM; in assay [10], 6.13 µM.

On to `CCN(Cc1cc(Nc2nc(C)cn3c(-c4cn[nH]c4)cnc23)sn1)C(C)(C)CO`, for which the GI50 is less than 0.012 µM in assay [1]; 0.0508 µM in [2]; 0.0473 µM in [3]; 0.0179 µM in [4]; less than 0.01 µM in assay [5]; 0.044 µM in assay [6]. For the same compound, the GI50 is less than 0.01 µM in assay [7], 0.0676 µM in assay [8], 0.0358 µM in assay [9] and 0.0826 µM in assay [10]. Further, the TGI amounted to 0.0907 µM in [1]; 4.35 µM in assay [2]; 2.73 µM in assay [3]; 0.118 µM in assay [4]; 1.64 µM in assay [5]; 4.59 µM in assay [6]. Moreover, the TGI in [7] turned out to be 9.55 µM; in [8], 10.7 µM; in assay [9], 11.5 µM; in assay [10], 1.31 µM.

For the compound `C=C(C)[C@@H]1CC[C@]2(C)CC[C@]3(C)[C@H](CC[C@@H]4[C@@]5(C)CC[C@H](O)C(C)(C)[C@@H]5CC[C@]43C)[C@@H]12`, the TGI is 28.7 µM in assay [1]; greater than 100 µM in assay [2]; greater than 63.8 µM in [3]; greater than 100 µM in [4]; greater than 100 µM in assay [5]; greater than 100 µM in [6]. Besides, the TGI is 48.9 µM in assay [7], greater than 100 µM in [8], greater than 100 µM in [9] and 40.4 µM in [10].

As for `O=c1[nH]nnc2c1ncn2C1OC(CO)C(O)C1O` (stereo not given), the GI50 is 14.1 µM in [1]; 4.91 µM in assay [2]; 24 µM in assay [3]; 14.5 µM in assay [4]; 3.21 µM in assay [5]; 2.82 µM in [6]. The GI50 in assay [7] was 3.19 µM; in [8], 74.9 µM; in [9] it was 0.998 µM; in assay [10], 14.2 µM. The TGI in assay [1] is greater than 100 µM; in [2], 76.9 µM; in [3], greater than 100 µM; in assay [4], greater than 100 µM; in assay [5], 59.7 µM; in assay [6] it was greater than 100 µM. Besides, the TGI is greater than 100 µM in assay [7], greater than 100 µM in [8], 32.5 µM in [9] and greater than 100 µM in assay [10].

Turning to `O=C1C(Cl)=C(Nc2cccc(F)c2)C(=O)N1Cc1ccc(Cl)cc1`, the GI50 in [1] is 0.39 µM; in assay [2] it was 0.242 µM; in assay [3], 0.305 µM; in [4], 1.03 µM; in assay [5] it was 0.128 µM; in [6] it was 1.08 µM. Moreover, the GI50 in [7] was 0.118 µM; in assay [8] it was 4.58 µM; in [9] it was 1.71 µM; in assay [10] it was 0.665 µM. Besides, the TGI amounted to 4.91 µM in assay [1]; 4.7 µM in assay [2]; 3.98 µM in assay [3]; 4.04 µM in assay [4]; 11.1 µM in [7]; 22.4 µM in assay [8]. Also, the TGI in assay [9] amounted to 13.8 µM; in assay [10], 2.3 µM.

Take `COc1ccc(C(=S)N2CCN(c3cccc(C)c3)CC2)cc1OC`: the GI50 in [1] was 6.05 µM; in [2], 5.85 µM; in assay [3], 7.54 µM; in assay [4], 5.1 µM; in assay [5], 1.53 µM; in assay [6], 3.38 µM. Moreover, the GI50 is greater than 100 µM in assay [7], greater than 100 µM in [8], 3.21 µM in assay [9] and 1.09 µM in assay [10]. The TGI in assay [1], in [2], in [3], in assay [4], in assay [5] and in [6] was greater than 100 µM each time. For the same compound, the TGI was greater than 100 µM in assay [7], greater than 100 µM in assay [8], greater than 100 µM in assay [9] and 4.04 µM in assay [10].

For the compound `C[C@]12CC[C@@H]3c4ccc(OC(=O)N(CCCl)CCCl)cc4CC[C@H]3[C@@H]1CC[C@@H]2O`, the GI50 in [1] was 2.23 µM; in [2], 2.59 µM; in [3] it was 2.83 µM; in assay [4], 1.69 µM; in assay [5], 0.135 µM; in assay [6] it was 2.75 µM. Moreover, the GI50 in assay [7] was 1.21 µM; in assay [8] it was 9.98 µM; in [9], 2.44 µM; in assay [10], 0.354 µM. The TGI in assay [1] stood at 6.42 µM; in [2] it was 8.29 µM; in assay [3] it was 13.7 µM; in assay [4], 4.27 µM; in assay [5], 1.42 µM; in [6] it was 12.9 µM. For the same compound, the TGI was 6.83 µM and 3.45 µM in [7]; 6.15 µM in assay [10].
